Data on 2 molecules can be found in publication PMC10572855, “Phenotypic Test of Benzo[4,5]imidazo[1,2-c]pyrimidinone-Based Nucleoside and Non-Nucleoside Derivatives against DNA and RNA Viruses, Including Coronaviruses” (International Journal of Molecular Sciences, 2023).

The subject of series [1] is SARS-CoV-2 UC-1074 (Wuhan). The series is described as follows: Cytopathic effect reduction, SARS-CoV-2 UC-1074 (Wuhan) in Vero cells. Format: cell-based. As to conditions: Severe acute respiratory syndrome coronavirus 2, UC1074, CPE reduced by 50%, 100 TCID50, read-out: Antiviral Activity (EC50) UC-1074 (Wuhan). For orientation: Cytopathic effects are the visible damage that an infection or toxin causes in cultured cells.

The subject of series [2] is TK+ VZV strain OKA. The series is described as follows: microbe, parasite or virus in culture. The format is cell-based, Varicella zoster virus. As to conditions: Human alphaherpesvirus 3, HEL 299, read-out: Antiviral Activity (EC50) TK+ VZV Strain OKA.
Series [3] deals with HCoV 229E. The series is described as follows: Cytopathic effect reduction, HCoV 229E. Format: cell-based, Human coronavirus 229E. As to conditions: Human coronavirus 229E; reduction of virus-induced cytopathic effect by 50%; virus input 100 TCID50; read-out: Antiviral Activity (EC50) HCoV 229E.
Series [4] has as its system SARS-CoV-2 860-J1 (Delta). The series is described as follows: Cytopathic effect reduction, SARS-CoV-2 860-J1 (Delta) in Vero cells. Format: cell-based. As to conditions: Severe acute respiratory syndrome coronavirus 2, CPE reduced by 50%, 100 TCID50, read-out: Antiviral Activity (EC50) 860-J1 (Delta).
Series [5] has as its system SARS-CoV-2 (all strains). The series is described as follows: Cytopathic effect reduction, various SARS-CoV-2 strains in Vero cells. Format: cell-based. As to conditions: Severe acute respiratory syndrome coronavirus 2, read-out: EC50 against all SARS-CoV-2 strains.
Series [6] concerns the target SARS-CoV-2 RdRp (nsp12, nsp7-nsp8) (Severe acute respiratory syndrome coronavirus 2, UniProt P0DTD1). The series is described as follows: In vitro transcription assay with SARS-CoV-2 RdRp. The format is biochemical. As to conditions: RdRp 1 µM, RNA substrate 25 nM, 100 µM NTPs, 30 °C; read-out: IC50, inhibition of RdRp activity (RNA primer extension).
In series [7] the test system is RSV (Long). The series is described as follows: Cytopathic effect reduction, RSV (Long). As to conditions: human respiratory syncytial virus; reduction of virus-induced cytopathic effect by 50%; virus input 100 TCID50; read-out: Antiviral Activity (EC50) RSV Long. Format: cell-based, Respiratory syncytial virus.
For series [8], the system named is SARS-CoV-2 B1.1 529 BA.1 (Omicron). The series is described as follows: Cytopathic effect reduction, SARS-CoV-2 B1.1 529 BA.1 (Omicron) in Vero cells. Format: cell-based. As to conditions: Severe acute respiratory syndrome coronavirus 2, CPE reduced by 50%, read-out: Antiviral Activity (EC50) B1.1 529 BA.1 (Omicron).
Series [9] concerns HCoV NL63. The series is described as follows: Cytopathic effect reduction, HCoV NL63. Format: cell-based, Human coronavirus NL63. As to conditions: Human coronavirus NL63; reduction of virus-induced cytopathic effect by 50%; virus input 100 TCID50; read-out: Antiviral Activity (EC50) HCoV NL63.
Series [10] is described as follows: Cytotoxicity in HEL299 cells, MTS assay. The format is cell-based, Human. As to conditions: human, HEL299 cells, cell growth reduced by 50%. Background: Tetrazolium assays rely on reduction of a dye to a coloured formazan, in cell work by metabolically active cells.
Experimental: (§1) Cells were seeded at a rate of 5 × 10^3 cells/well into 96-well plates and allowed to proliferate for 24 h. Then, a medium containing different concentrations of the test compounds, starting at 100 mM, was added. After 3 days of incubation at 37 °C, the cell count was determined with a Beckman Coulter counter or, alternatively, cell viability was determined with the colorimetric formazan-based MTS assay. […] The cytotoxic effects of the compounds were also assessed by evaluating the MCC (minimum cytotoxic concentration that causes a microscopically detectable alteration of cell morphology).
The subject of series [11] is TK- VZV strain 07-1. The series is described as follows: microbe, parasite or virus in culture. As to conditions: Human alphaherpesvirus 3, HEL 299, read-out: Antiviral Activity (EC50) TK− VZV Strain 07-1.
For series [12], the system named is HCoV OC43. The series is described as follows: Cytopathic effect reduction, HCoV OC43. The format is cell-based, Human coronavirus OC43. As to conditions: Betacoronavirus 1, OC43; reduction of virus-induced cytopathic effect by 50%; virus input 100 TCID50; read-out: Antiviral Activity (EC50) HCoV OC43.
In series [13] the test system is SARS-CoV-2 NVDBB-2220 (UK). The series is described as follows: Cytopathic effect reduction, SARS-CoV-2 NVDBB-2220 (UK) in Vero cells. Format: cell-based. As to conditions: Severe acute respiratory syndrome coronavirus 2, CPE reduced by 50%, 100 TCID50, read-out: Antiviral Activity (EC50) NVDBB-2220 (UK).
A short description of series [14]: in vitro. As to conditions: green monkey.
A short description of series [15]: Cytotoxicity in Huh7 cells, MTS assay. Format: cell-based, Human. As to conditions: human, Huh7 cells, cell growth reduced by 50%.
Experimental: as §1
Series [16] deals with T1, SARS-CoV-2 N-protein and stem-loop vgRNA fragment condensates (Severe acute respiratory syndrome coronavirus 2, UniProt P0DTC9).
T1 construct: His-tag; made in house
The series is described as follows: Cell-free LLPS assay, N-protein:vgRNA condensates. Format: biochemical.

The subject of series [17] is HEL299 cells. As to conditions: minimum cytotoxic concentration, microscopically detectable alteration of cell morphology.
Experimental: as §1
Series [18] relates to Vero cells. As to conditions: minimum cytotoxic concentration, microscopically detectable alteration of cell morphology.
Series [19] deals with TK- VZV strain 07-1. The series is described as follows: in vitro. As to conditions: human.
Series [20] in a line: Cell growth inhibition in HEL299 cells, Coulter Counter. The format is cell-based. As to conditions: human, 3 days of cell growth, read-out: Cytotoxicity Cell Growth (CC50).
Experimental: as §1
Where [21] appears, read: 20 µM compound, 3 µM N-protein, 6 µM RNA.

In general, IC50 refers to the concentration that inhibits the measured activity by half. On to `COc1ccc(C(OC[C@H]2O[C@@H](n3ccc4nc5cc(O)ccc5n4c3=O)C[C@@H]2O)(c2ccccc2)c2ccc(OC)cc2)cc1` [Compound 3a, 2-((2R,4S,5R)-5-((bis(4-methoxyphenyl)(phenyl)methoxy)methyl)-4-hydroxytetrahydrofuran-2-yl)-7-hydroxybenzo[4,5]imidazo[1,2-c]pyrimidin-1(2H)-one], for which the EC50 in [1] was 8.82 ± 0.21 µM; in series [2], greater than 4 µM; in series [3], 8.5 ± 0.36 µM; in [4], 11.3 ± 3.5 µM; in series [5], roughly 10 µM; in [7], 0.67 ± 0.23 µM. In addition, the EC50 was 10.6 ± 0.7 µM in [8]; greater than 100 µM in [9]; greater than 4 µM in series [11]; less than 0.8 µM in series [12]; 8.92 ± 6.38 µM in series [13]; no more than 10 µM in [16] (dose-dependent effect, 3 µM N-protein, 6 µM RNA, read-out: EC50 of inhibition of condensate formation (LLPS)). Besides, in series [6], the IC50 was 94 ± 3 µM. The results for the CC50 at 3 days in [10] and in series [15] were greater than 100 µM and less than 0.8 µM, respectively. The CC50 in series [14] was greater than 100 µM. Moreover, the “effect on LLPS / condensates (summary in words)” value in [16] (20 µM compound) was “robust LLPS inhibitor”. Further, the “decrease of the average number of droplets” value in series [16] (setting [21]) is reported as “approximately 60%”. The “decrease of the partitioning coefficient (droplet/solution N-protein concentration ratio)” value in series [16] (setting [21]) was 60–70%. In addition, the median droplet diameter in series [16] (setting [21]) is listed as 1.1 µm. In series [17], the “Cytotoxicity Cell Morphology (MCC)” value came out at 20 μM.
In the case of `COc1ccc(C(OC[C@H]2O[C@@H](n3ccc4nc5cc(OC)ccc5n4c3=O)C[C@@H]2O)(c2ccccc2)c2ccc(OC)cc2)cc1` [Compound 7a, 2-((2R,4S,5R)-5-((bis(4-methoxyphenyl)(phenyl)methoxy)methyl)-4-hydroxytetrahydrofuran-2-yl)-7-methoxybenzo[4,5]imidazo[1,2-c]pyrimidin-1(2H)-one], the EC50 was greater than 20 µM in [1], 8.15 ± 3.59 µM in [2], greater than 100 µM in [8] and 3.28 ± 2.23 µM in [11]. Moreover, the “Cytotoxicity Cell Morphology (MCC)” value in series [18] was greater than 100 μM; in [17], 100 μM. Moreover, the selectivity ratio in [19] is greater than 30. For the same molecule, in [20], the CC50 at 3 days is greater than 100 µM. In addition, the “effect on LLPS / condensates (summary in words)” value in series [16] (20 µM compound) was “caused no changes”.
